The record followed here is patent publication US7696243B2, “Pyrrolidin-2-one derivatives for use as DP1 receptor agonists” (Merck Serono, S.A., priority 2004, dated 2010).

One data set has as its target T1, h-DP2 (Homo sapiens, UniProt Q9Y5Y4).
T1 construct: expressed in transfected cells; host or cells: HEK 293(ebna) cells or other stably transfected cells; membranes
T1 sequence (Q9Y5Y4 1-395): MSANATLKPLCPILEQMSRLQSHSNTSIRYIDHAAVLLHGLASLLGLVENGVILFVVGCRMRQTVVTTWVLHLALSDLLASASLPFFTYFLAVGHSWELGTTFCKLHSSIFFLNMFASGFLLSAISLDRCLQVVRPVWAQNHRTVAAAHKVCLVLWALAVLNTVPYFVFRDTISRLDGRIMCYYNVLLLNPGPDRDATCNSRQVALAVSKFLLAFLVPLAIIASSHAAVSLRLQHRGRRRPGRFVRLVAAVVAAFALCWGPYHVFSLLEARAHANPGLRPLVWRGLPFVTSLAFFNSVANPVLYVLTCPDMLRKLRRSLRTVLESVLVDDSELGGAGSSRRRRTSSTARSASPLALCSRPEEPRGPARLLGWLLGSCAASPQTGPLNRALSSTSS
In words: Prostanoid receptor binding assay, DP2. To be noted: n = 2. On the procedure: (§1) HEK 293(ebna) cells or other cells stably transfected with the appropriate receptor are maintained in culture, harvested and membranes are prepared by differential centrifugation, following lysis of the cells in the presence of protease inhibitors, for use in receptor binding assays.
(§2) Prostanoid receptor binding assays are performed in 10 mM MES/KOH (pH 6.0) (EPs, FP and TP) or 10 mM HEPES/KOH (pH 7.4) (DP and IP), containing 1 mM EDTA, 10 mM divalent cation and the appropriate radioligand for the given receptor. The reaction is initiated by addition of membrane protein. Typically, the ligands are added in a solvent such as dimethylsulfoxide which is kept constant at 1% (v/v) in all incubations. Non-specific binding is determined in the presence of 1 μM of the corresponding non-radioactive prostanoid. Incubations are conducted for 60 min at room temperature or 30° C. and terminated by rapid filtration. Specific binding is calculated by subtracting non-specific binding from total binding. The residual specific binding at each ligand concentration is calculated and expressed as a function of ligand concentration in order to construct sigmoidal concentration-response curves for determination of ligand affinity.
(§3) In another protocol, compounds of the invention are tested in DP1 receptor binding assay of the following protocol. A mixture containing 20 μg of DP1 receptor membranes, 0.5 mg of wheat germ agglutinin coated PVT-SPA beads, plus or minus a test compound of the invention (25 μl per well) or 10 μM of cold PGE2 at 1% DMSO and 20 nM radiolabeled ligand for the receptor (e.g., tritiated-PGE2) in assay buffer containing 25 mM MES, 10 mM MgCl2, 1 mM EDTA, pH 6.0 are incubated in Corning 3600 plates on a plate shaker for 2 hrs at room temperature. Binding of the radiolabeled ligand binding is evaluated by counting the plates on the top count using the 3H SPA dpm2 program. % Binding and Ki value for inhibitors are calculated based on the one site competition parameter using the Graphpad® prism program. Such an assay may be modified by employing the different receptors and their specific ligands to assess the activity of the compounds of the present invention against such receptors. Using such an assay, the DP1 Ki values for a number of exemplary compounds of the present invention were calculated and are shown in Table 1.

Data set [1] concerns the target T2, h-DP1 (Homo sapiens, UniProt Q13258).
T2 construct: expressed in transfected cells; host or cells: HEK293-EBNA
T2 sequence (Q13258 1-359): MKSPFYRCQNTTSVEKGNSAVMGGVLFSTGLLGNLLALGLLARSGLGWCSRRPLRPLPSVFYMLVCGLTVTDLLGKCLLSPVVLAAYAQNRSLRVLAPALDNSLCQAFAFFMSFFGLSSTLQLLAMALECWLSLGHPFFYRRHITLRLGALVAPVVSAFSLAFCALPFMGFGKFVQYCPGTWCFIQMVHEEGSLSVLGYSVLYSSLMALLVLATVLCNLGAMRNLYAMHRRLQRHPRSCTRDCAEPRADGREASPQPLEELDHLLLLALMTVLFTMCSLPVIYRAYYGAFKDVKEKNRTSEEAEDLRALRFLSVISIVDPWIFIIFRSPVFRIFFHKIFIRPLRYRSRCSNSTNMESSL
In words: DP1 receptor binding assay (SPA, receptor membranes). On the procedure:
as §1, §2, §3

Data set [2] concerns the target T2, h-DP1. In words: Whole cell second messenger (cAMP) assay on cells expressing DP1. Type of data set: cell-based. On the procedure:
Whole cell second messenger assays measuring stimulation (EP2, EP4, DP1, DP2 and IP in HEK 293(ebna) cells) or inhibition (EP3 in human erythroleukemia (HEL) cells) of intracellular cAMP accumulation or mobilization of intracellular calcium (EP1, FP and TP in HEK 293(ebna) cells stably transfected with apo-aequorin) are performed to determine whether receptor ligands are agonists or antagonists. For cAMP assays, cells are harvested and resuspended in HBSS containing 25 mM HEPES, pH 7.4. Incubations contain 100 μM RO-20174 (phosphodiesterase type IV inhibitor, available from Biomol) and, in the case of the EP3 inhibition assay only, 15 μM forskolin to stimulate cAMP production.
Samples are incubated at 37° C. for 10 min, the reaction is terminated and cAMP levels are then measured. For calcium mobilization assays, cells are charged with the co-factors reduced glutathione and coelenterazine, harvested and resuspended in Ham's F12 medium. Calcium mobilization is measured by monitoring luminescence provoked by calcium binding to the intracellular photoprotein aequorin. Ligands are added in dimethylsulfoxide which is kept constant at 1% (v/v) in all incubations.
For agonists, second messenger responses are expressed as a function of ligand concentration and both EC50 values and the maximum response as compared to a prostanoid standard are calculated. For antagonists, the ability of a ligand to inhibit an agonist response is determined by Schild analysis and both KB and slope values are calculated.
In another exemplary protocol, HEK293-EBNA cells transfected with the appropriate receptors are seeded in 96 well opaque plate (Costar #3917) at 4×10^4 cells per well in 100 μl of culture medium (D-MEM/F12 supplemented with 10% FBS, […] L-glutamine, and 250 μg/ml of hygromycin; all from GibcoBRL) and incubated at 37° C. After overnight incubation, the medium was removed from each well and replaced with 45 μl of assay medium consisted of phenol red free D-MEM/F-12, 0.1% BSA (GibcoBRL) and 0.1 mM 3 isobutyl-1-methyl-xanthine (Sigma). After 15 minutes of incubation at 37° C., 16-16-dimethyl PGE-2 or compounds at desired concentrations in 20 μl of assay medium were added to cells and further incubated at 37° C. for 1 hour. Total cAMP (intra- and extracellular) was measured by using a cAMP-screen ELISA System (Tropix #CS1000).

For data set [3], the system named is human penile cavernosal tissue strips. In words: Organ bath: relaxation of human penile cavernosal tissue strips after contraction with phenylephrine. On the procedure:
Human tissue procurement. Cavernosal tissue is obtained from patients undergoing penile prosthesis implantation surgery for treatment of erectile dysfunction. In the operating room, biopsies of the corpora cavernosa are immediately placed in chilled (4° C.) physiologic salt solution and transported to the laboratory. Tissue strips, measuring approximately 3 mm×3 mm×10 mm, are cut and prepared for organ bath studies.
Preparation of compound stock solutions and dose responses. PGE1 (Cayman Chemical Co., Ann Arbor, Mich.) is stored at −20° C. in solid form until the day of use. Stock solutions are made by adding 1 ml of 70% DMSO to a vial containing 1 mg of PGE1. Compounds of the invention are dissolved in 1 ml of 70% DMSO, divided into 100 μl aliquots and stored at −20° C. until use. For dose responses in organ baths, stock solutions of PGE1 and compounds of the invention are diluted with 70% DMSO to make the highest concentration and then serially diluted with 2% DMSO for all other doses. In a typical dose response curve, the concentration of DMSO is checked to remain below […] in the 25 ml bath and to not exceed 0.5% at the highest dose.
Organ bath studies. Human or rabbit cavernosal tissue strips are mounted onto a fixed support with silk ties and attached to a tension transducer (model FT03; GrassTelefactor, Astro-Med, Inc. West Warwick, R.I.) with a rigid metal wire. After mounting, tissue strips are immersed in 25 ml baths of physiologic salt solution (PSS; 118.3 mM NaCl, 4.7 mM KCl, 0.6 mMMgSO4, 1.2 mMKH2PO4, 2.5 mMCaCl2, 25 mMNaHCO3, 0.026 mM CaNa2EDTA, 11.1 mM glucose). The solution is gassed with 95% […]/5% CO2 to attain a pH of 7.4 and the temperature is maintained at 37° C. All tissue strips are treated with 3 μM indomethacin to inhibit endogenous prostanoid production and minimize spontaneous contractile activity. The corpus cavernosum tissue is stretched incrementally and the optimal resting isometric tension for contraction is determined. After every 3-4 stretches (1 g tension/stretch), the tissue is contracted with 1 μM phenylephrine. When the amplitude of the phenylephrine-induced contraction is within 10% of the previous contraction, that tension is considered optimal for isometric contraction. All tissue strips are extensively washed with fresh PSS. Tissue strips are then contracted with 1 μM phenylephrine. After stable tone is achieved, tissue strips are exposed to increasing concentrations of PGE1 or compounds of the invention.
Data analysis. At the end of each experiment, all tissue strips are treated with 10 μM papaverine and 10 μM nitroprusside to induce maximal relaxation (100%). The total amount of relaxatory response over the range of drug concentrations tested is determined by the area under the plotted curves. EC50 values are calculated using Prism software (GraphPad, San Diego, Calif.). For final analysis of data, relaxation parameters are compared using ANOVA. If the ANOVA p-value is less than 0.05, paired post-test comparisons is carried out using the Tukey-Kramer test.

Another data set deals with rabbits. In words: In vivo intracavernosal injection, erectile response (ICP/SAP). Conditions: rabbit. On the procedure: DP agonists were solubilized in 40% propylene glycol and administered by intracavernosal injection to deliver the indicated dose in 0.1 ml total volume. Since penile intracavernosal pressure (ICP) is ultimately limited by the systemic arterial pressure (SAP), all erectile responses were normalized by calculating the ration of ICP/SAP.

[4] abbreviates: after contraction with phenylephrine.

“Also recorded” adds a separate entry of the source.

For the molecule `O=C(O)CCCCCC[C@H]1CCC(=O)N1CCC(O)C1CCCCC1` (stereo in doubt) [Example 4, 7-{(2S)-1-[(3R)-3-cyclohexyl-3-hydroxypropyl]-5-oxopyrrolidin-2-yl}heptanoic acid], the values for the inhibition constant Ki at h-DP2 and at h-DP1 [1] were above 10000 nM and 47.2 nM, respectively. At h-DP1 [2], this molecule had an EC50 of 1.38 nM.

As to `O=C(O)CCCCCCC1C(=O)NC(=O)N1CCC(O)C1CCCCC1` (stereo not shown) [BW245C, reference compound], the EC50 in data set [3] (setting [4]) stood at 59 nM; on h-DP1 [2], 0.031 nM.

In the case of `O=C(O)c1ccc(CCC[C@H]2CCC(=O)N2CC[C@@H](O)C2CCCCC2)cc1` [Example 1, 4-(3-(2S)-1-[(3R)-3-cyclohexyl-3-hydroxypropyl]-5-oxotetrahydro-1H-2-pyrrolylpropyl)benzoic acid], in the data set with rabbits (any dose), the Systemic blood pressure result is given as “no overt changes”. Also, in the data set with rabbits (intracavernosal), the Arterial pressure result is on record as “remained constant”, the “Duration of transient episodes of penile tumescence” value lay within 1 to 3 min and the “ICP/SAP (peak response or AUC) compared to vehicle” value was “dose-dependant increases”. For the same molecule, the “Penile response at highest dose” value in the data set on rabbits (intracavernosal, 5 μg, single animals) is “repeated and transient episodes of spontaneous penile tumescence; also recorded: penile resistance arteries were fully dilated”. In addition, the “Penile tumescence after intracavernosal injection” value in the data set on rabbits (intracavernosal, 40% propylene glycol) is on record as “sustained periods of penile tumescence or transient episodes”. Besides, the Ki at h-DP2 was above 10000 nM. For the same molecule, the inhibition constant Ki at h-DP1 [1] is 2.4 nM. The same molecule came in with a concentration for a half-maximal effect (EC50) in data set [3] (Homo sapiens, after contraction with phenylephrine) of 29 nM. Also, the “Relaxation of human penile cavernosal tissue strips (in words)” value in data set [3] (setting [4]) is on record as “dose-dependent relaxation”. The “Extent of relaxation (maximal effect) versus BW245C” value in data set [3] (human cavernosal tissue) is listed as “greater”.

As for `O=C(O)c1ccc(CCC[C@H]2CCC(=O)N2CC[C@H](O)C2CCCCC2)cc1` [Example 2, 4-(3-(2S)-1-[(3S)-3-cyclohexyl-3-hydroxypropyl]-5-oxotetrahydro-1H-2-pyrrolylpropyl)benzoic acid], the results for the Ki on h-DP2 and at h-DP1 [1] were above 10000 nM and 10.5 nM, respectively. At h-DP1 [2], this molecule had a half-maximal effective concentration (EC50) of 0.71 nM.

Regarding `O=C(O)CCCCCC[C@H]1CCC(=O)N1CC[C@@H](O)C1CCCCC1` [Example 3, 7-{(2S)-1-[(3R)-3-cyclohexyl-3-hydroxypropyl]-5-oxopyrrolidin-2-yl}heptanoic acid], the Ki was above 10000 nM on h-DP2 and 1.8 nM on h-DP1 [1]. Besides, at h-DP1 [2], the half-maximal effective concentration (EC50) was 0.037 nM.

With `CCCCC[C@H](O)/C=C/[C@H]1C(=O)C[C@H](O)[C@@H]1C/C=C\CCCC(=O)O` [PGD2], the Ki at h-DP1 [1] stood at 4.1 nM. For the same molecule, the 50% effective concentration (EC50) (in data set [3] (setting [4]); on h-DP1 [2]) was 0.3 nM in each case. The “Effect at concentrations higher than 0.3 μM” value in data set [3] (human cavernosal tissue) is “caused contraction”. Also, the “Concentration through which dose-dependent relaxation was seen” value in data set [3] (human cavernosal tissue, contraction at higher concentration) was at most 0.3 µM.

`CCCCC[C@H](O)/C=C/[C@H]1[C@H](O)CC(=O)[C@@H]1CCCCCCC(=O)O` [PGE1] had a 50% effective concentration (EC50) in data set [3] (setting [4]) of 210 nM.
